Test results published in patent US20180161386A1, “PHARMACEUTICAL COMPOSITION FOR TREATMENT OF DEPRESSION AND PREPARATION METHOD THEREOF” (THISHERB HEALTH PTY LTD, priority 2015, published 2018).
Where a name gives a salt, the structure may show the parent alone.

Key:
mice [1] = assay: mouse-tail suspension test; format: in vivo
Source text: (§1) 1.1 Drug testing and reagents: The capsules pharmaceutical compositions for the treatment of depression in form of obtained in Example 2 compared with fluoxetine hydrochloride. 1.2 Animals: 20 male and 20 female mice provided by the Experimental Animal Center; average body mass of 18-22 g. 1.3 Instruments: Mouse-tail suspension device (a wooden board of about 1 meter in length, fixed onto a desktop with a horizontal distance of about 15 cm), swimming model device (a glass tank with a height of 30 cm, a diameter of 14 cm, a water depth of 10 cm, and temperature of 25° C.), and homemade open box. 1.4 Grouping: The mice were fed for one week, during which time the mice feed and drink freely. The mice were randomly divided into four groups of control group, depression capsule low-dose group (hereinafter referred to as the low-dose group), depression capsule high-dose group (hereinafter referred to as the high-dose group), the positive groups, 10 mice per group. […]
The mouse was suspended by its tail so that the tail was adhered (1 cm from the tail end of the mouse) to the horizontal plank of wooden board by tape with its head about 5 cm above the desktop. […] The test was performed in 1 h after last drug administration and the time of the mouse being immobile within last 4 min for 6 min period was recorded.

mice [2] = assay: opening test (independent activity, open box); format: in vivo, mouse
Source text: as §1
A wooden box was provided with 36 cm×36 cm×27 cm, the bottom of which is divided into 25 squares. The test was performed in 1 h after last drug administration, and the number of the mouse crossing the grids and vertical climbing within last 3 min for 5 min period was recorded.

mice [3] = assay: mouse forced swimming test; format: in vivo
Source text: 1.1 Drug testing and reagents: The capsules pharmaceutical compositions for the treatment of depression in form of obtained in Example 2 compared with fluoxetine hydrochloride. 1.2 Animals: 20 male and 20 female mice provided by the Experimental Animal Center; average body mass of 18-22 g. 1.3 Instruments: Mouse-tail suspension device (a wooden board of about 1 meter in length, fixed onto a desktop with a horizontal distance of about 15 cm), swimming model device (a glass tank with a height of 30 cm, a diameter of 14 cm, a water depth of 10 cm, and temperature of 25° C.), and homemade open box. 1.4 Grouping: The mice were fed for one week, during which time the mice feed and drink freely. The mice were randomly divided into four groups of control group, depression capsule low-dose group (hereinafter referred to as the low-dose group), depression capsule high-dose group (hereinafter referred to as the high-dose group), the positive groups, 10 mice per group. 1.5 Drug administration: The control group was given saline daily at 0.2 ml/10 g; the positive control group was given fluoxetine hydrochloride 2.4 mg/kg; the low-dose group was given depression capsules 1.05 g/kg; and the high-dose group was given depression capsules 4.20 g/kg. The route of administration was directly into the stomach.
1.6.2 Mouse forced swimming test: Refer to method by Prosolt et al. […]

[4] = positive group 2.4 mg/kg, P<0.01

CNCCC(Oc1ccc(C(F)(F)F)cc1)c1ccccc1 (stereo not drawn) [fluoxetine hydrochloride]
Immobile time in the mouse-tail suspension test (mice [1]; mice, positive control group 0.0024 g/kg (2.4 mg/kg), directly into the stomach, 1 h after last administration, last 4 min of 6 min, x ± s, n = 10): 73 s
effect on immobile time in mouse-tail suspension test compared with the control group (mice [1]; [4]): highly significant difference
the number of squares crossed by mouse (mice [2]; mice, positive control group 0.0024 g/kg (2.4 mg/kg), directly into the stomach, 1 h after last administration, last 3 min of 5 min, ±s, n = 10): 43.9 ± 13.3
effect on independent activity in the opening test compared with the control group (mice [2]; positive group 2.4 mg/kg, P>0.05): no significant difference
Immobile time in mouse forced swimming test (mice [3]; mice, positive control group 0.0024 g/kg (2.4 mg/kg), directly into the stomach, 1 h after last administration, last 4 min of 6 min, water 25° C., x ± s, n = 10): 83.5 s
effect on immobile time in mouse forced swimming test compared with the control group (mice [3]; [4]): highly significant difference
